The source of these data is paper PMC10383849, “Novel Molecular Consortia of Cannabidiol with Nonsteroidal Anti-Inflammatory Drugs Inhibit Emerging Coronaviruses’ Entry” (Pathogens, 2023).

“Also recorded” adds a separate entry of the source. Where two headings read alike, the source gives them in different places.

The test system of experiment [1] is SARS-CoV-2. The conditions noted are these: lung epithelial cells; ref 41 (Nguyen et al.); cited from earlier work.
Experiment [2] has as its system VSV-pseudotypes bearing SARS-CoV-1 S protein. The experiment is described as follows: microbe, parasite or virus in culture. In kind it is cell-based. The conditions noted are these: for inhibitory effect on SARS-CoV-1 virus entry (in words): 1-100 μg/mL.
The subject of experiment [3] is VSV-pseudotypes bearing SARS-CoV-2 S protein. Put plainly: microbe, parasite or virus in culture. The format is cell-based. The conditions noted are these: for inhibitory effect on SARS-CoV-2 entry (in words): 1-100 μg/mL; for IC50: Severe acute respiratory syndrome coronavirus 2, HEK-293T, read-out: IC50, SARS-CoV-2 entry.
Experiment [4] concerns influenza virus A/Puerto Rico/8/34. The format is cell-based.
The test system is the same in experiment [5]. In kind it is cell-based. This is another data set of the same source.
Experiment [6] has as its system SARS-CoV-2. Particulars: ref 43 (van Breemen et al.); cited from earlier work.
Another experiment has as its system influenza virus. Particulars: cited from earlier work.

As for `C=C(C)[C@@H]1CCC(CO)=C[C@H]1c1c(O)cc(CCCCC)cc1O` [7-OH-CBD], in the experiment on SARS-CoV-2 [1], the “inhibition of SARS-CoV-2 replication (in words)” value is given as “inhibit SARS-CoV-2 replication”.
Consider `C=C(C)[C@@H]1CCC(C)=C[C@H]1c1c(O)cc(CCCCC)cc1O` [CBD, cannabidiol], for which the “inhibition of SARS-CoV-2 replication (in words)” value in the experiment on SARS-CoV-2 [1] is “inhibit SARS-CoV-2 replication”.
As for `C=C(C)C1CCC(C)=CC1c1c(OC(=O)C(C)c2ccc(CC(C)C)cc2)cc(CCCCC)cc1OC(=O)C(C)c1ccc(CC(C)C)cc1` (centres unmarked) [CBD-I], the “inhibitory effect on SARS-CoV-1 virus entry (in words)” value in experiment [2] is “did not find any significant inhibitory effect”. Besides, in experiment [3], the “inhibitory effect on SARS-CoV-2 entry (in words)” value is “significantly inhibited; also recorded: significantly reduced” and the IC50 was less than 1 µg/mL.
For `C=C(C)C1CCC(C)=CC1c1c(OC(=O)C(C)c2cccc(C(=O)c3ccccc3)c2)cc(CCCCC)cc1OC(=O)C(C)c1cccc(C(=O)c2ccccc2)c1` (centres unmarked) [CBD-K], the “inhibitory effect on SARS-CoV-1 virus entry (in words)” value in experiment [2] is reported as “did not find any significant inhibitory effect”. Besides, in experiment [3], the “inhibitory effect on SARS-CoV-2 entry (in words)” value was “non-significant decrease in luciferase activity; also recorded: did not significantly affect”.
Consider `C=C(C)C1CCC(C)=CC1c1c(OC(=O)C(C)c2ccc3cc(OC)ccc3c2)cc(CCCCC)cc1OC(=O)C(C)c1ccc2cc(OC)ccc2c1` (centres unmarked) [CBD-N], for which the “fold reduction in luciferase activity, SARS-CoV-1” value in experiment [2] (1 μg/mL) is recorded as “approximately 2 fold”. Further, the “fold decrease in luciferase activity, SARS-CoV-1” value in experiment [2] (50 μg/mL) and in experiment [2] (100 μg/mL) was “greater than 10 fold” each time. Also, the “inhibitory effect on SARS-CoV-1 virus entry (in words)” value in experiment [2] was “significant reduction; also recorded: significant inhibitory activity”. For the same compound, the IC50 in experiment [2] (Severe acute respiratory syndrome coronavirus, HEK-293T, read-out: IC50, SARS-CoV-1 virus entry) is less than 1 µg/mL; in experiment [3] it was less than 1 µg/mL. Also, the “fold inhibition of SARS-CoV-2 entry” value in experiment [3] is recorded as “greater than 10 fold”. The “inhibitory effect on SARS-CoV-2 entry (in words)” value in experiment [3] is recorded as “significantly inhibited; also recorded: significantly reduced”. Also, the “viral copy numbers in the supernatants vs mock” value in experiment [4] and in experiment [5] was “did not find any effect” each time.
On to `C=C(C)[C@@H]1CCC(C)=C[C@H]1c1c(O)cc(CCCCC)c(C(=O)O)c1O` [CBDA, cannabidiolic acid], for which, in the experiment with SARS-CoV-2 [6], the “block of SARS-CoV-2 entry into cells (in words)” value was “significantly block SARS-CoV-2 entry”.
For `CCCCCc1cc(O)c(C/C=C(\C)CCC=C(C)C)c(O)c1C(=O)O` [CBGA, cannabigerolic acid], in the experiment with SARS-CoV-2 [6], the “block of SARS-CoV-2 entry into cells (in words)” value is reported as “significantly block SARS-CoV-2 entry”.
With `COc1ccc2cc([C@H](C)C(=O)O)ccc2c1` [naproxen], in the experiment on influenza virus, the “anti-influenza virus activity (in words)” value is reported as “broad anti-influenza virus activity”.

The term IC50 denotes the concentration that gives 50% inhibition.
